Data from PubChem BioAssay AID1963826 (Molecular Pharmacology Branch, DTP, NCI, 2024).
pIC50: −log10 of the molar value.

Tested on: 926638-142-R-J1-PDC complex spheroid viability
Test: Anticancer human tumor 926638-142-R-J1-PDC patient-derived endometrial carcinoma cell line growth inhibition [POLQ]
Conditions: for pIC50: curve of first compound; for viability, T/C: stronger effect = lower value
Summary of the method: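 Three-cell-type spheroids modelling solid tumor plus stroma served as the readout system; POL inhibitors were tested individually and in combination, concentration ranges set by clinical Cmax where known.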

[1] = second compound 0.0316 µM, first compound 0.0316 µM
[2] = second compound 0.0316 µM, first compound 0.1 µM
[3] = second compound 0.0316 µM, first compound 0.316 µM
[4] = second compound 0.0316 µM, first compound 1 µM
[5] = second compound 0.1 µM, first compound 0.0316 µM
[6] = second compound 0.1 µM, first compound 0.1 µM
[7] = second compound 0.1 µM, first compound 0.316 µM
[8] = second compound 0.1 µM, first compound 1 µM
[9] = second compound 0.316 µM, first compound 0.0316 µM
[10] = second compound 0.316 µM, first compound 0.1 µM
[11] = second compound 0.316 µM, first compound 0.316 µM
[12] = second compound 0.316 µM, first compound 1 µM
[13] = second compound 1 µM, first compound 0.0316 µM
[14] = second compound 1 µM, first compound 0.1 µM
[15] = second compound 1 µM, first compound 0.316 µM
[16] = second compound 1 µM, first compound 1 µM
[17] = second compound 3.16 µM, first compound 0.0316 µM
[18] = second compound 3.16 µM, first compound 0.1 µM
[19] = second compound 3.16 µM, first compound 0.316 µM
[20] = second compound 3.16 µM, first compound 1 µM
[21] = second compound 10 µM, first compound 0.0316 µM
[22] = second compound 10 µM, first compound 0.1 µM
[23] = second compound 10 µM, first compound 0.316 µM
[24] = second compound 10 µM, first compound 1 µM
[25] = second compound 0.0316 µM, first compound 3.16 µM
[26] = second compound 0.0316 µM, first compound 10 µM
[27] = second compound 0.1 µM, first compound 3.16 µM
[28] = second compound 0.1 µM, first compound 10 µM
[29] = second compound 0.316 µM, first compound 3.16 µM
[30] = second compound 0.316 µM, first compound 10 µM
[31] = second compound 1 µM, first compound 3.16 µM
[32] = second compound 1 µM, first compound 10 µM
[33] = second compound 3.16 µM, first compound 3.16 µM
[34] = second compound 3.16 µM, first compound 10 µM
[35] = second compound 10 µM, first compound 3.16 µM
[36] = second compound 10 µM, first compound 10 µM
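Note: spheroids exposed to drugs for one week before readout.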
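Throughout, for viability, T/C: percent viability relative to DMSO vehicle control wells set as 100%.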

SMILES: COc1cccc(OCCCN)c1-c1cc(Nc2cnc(C#N)cn2)n[nH]1 + Nc1ccc(C#CCN(C(=O)Cc2ncc(C(F)(F)F)cc2C(F)(F)F)c2ccc(F)cc2)nn1
- pIC50 (second compound 0.0316 µM): 7.15
- pIC50 (second compound 0.1 µM): 6.95
- pIC50 (second compound 0.316 µM): 7.02
- pIC50 (second compound 1 µM): 7.11
- pIC50 (second compound 3.16 µM): 7.39
- pIC50 (second compound 10 µM): 7.18
- viability, T/C (second compound 0.0316 µM, first compound 0.00316 µM): 115%
- viability, T/C (second compound 0.0316 µM, first compound 0.01 µM): 76.4%
- viability, T/C [1]: 56%
- viability, T/C [2]: 47.3%
- viability, T/C [3]: 49.3%
- viability, T/C [4]: 32.3%
- viability, T/C (second compound 0.1 µM, first compound 0.00316 µM): 115%
- viability, T/C (second compound 0.1 µM, first compound 0.01 µM): 84.6%
- viability, T/C [5]: 62.7%
- viability, T/C [6]: 50.7%
- viability, T/C [7]: 48.4%
- viability, T/C [8]: 31.3%
- viability, T/C (second compound 0.316 µM, first compound 0.00316 µM): 111%
- viability, T/C (second compound 0.316 µM, first compound 0.01 µM): 79.2%
- viability, T/C [9]: 60.4%
- viability, T/C [10]: 48.3%
- viability, T/C [11]: 48.2%
- viability, T/C [12]: 36.7%
- viability, T/C (second compound 1 µM, first compound 0.00316 µM): 121%
- viability, T/C (second compound 1 µM, first compound 0.01 µM): 78.5%
- viability, T/C [13]: 60.6%
- viability, T/C [14]: 45.9%
- viability, T/C [15]: 48.5%
- viability, T/C [16]: 31.6%
- viability, T/C (second compound 3.16 µM, first compound 0.00316 µM): 89.5%
- viability, T/C (second compound 3.16 µM, first compound 0.01 µM): 73.4%
- viability, T/C [17]: 49.5%
- viability, T/C [18]: 43.4%
- viability, T/C [19]: 45.2%
- viability, T/C [20]: 31.7%
- viability, T/C (second compound 10 µM, first compound 0.00316 µM): 86.6%
- viability, T/C (second compound 10 µM, first compound 0.01 µM): 71.7%
- viability, T/C [21]: 50.2%
- viability, T/C [22]: 44.2%
- viability, T/C [23]: 51.3%
- viability, T/C [24]: 27.1%

SMILES: C#Cc1c(F)ccc2cc(O)cc(-c3ncc4c(N5CC6CCC(C5)N6)nc(OCC56CCCN5CC(F)C6)nc4c3F)c12 (stereo unspecified) + Nc1ccc(C#CCN(C(=O)Cc2ncc(C(F)(F)F)cc2C(F)(F)F)c2ccc(F)cc2)nn1
- pIC50 (second compound 0.0316 µM): < 5.00
- pIC50 (second compound 0.1 µM): < 5.00
- pIC50 (second compound 0.316 µM): < 5.00
- pIC50 (second compound 1 µM): < 5.00
- pIC50 (second compound 3.16 µM): < 5.00
- pIC50 (second compound 10 µM): < 5.00
- viability, T/C [1]: 97.8%
- viability, T/C [2]: 95%
- viability, T/C [3]: 83.7%
- viability, T/C [4]: 80.1%
- viability, T/C [25]: 71.8%
- viability, T/C [26]: 64.5%
- viability, T/C [5]: 125%
- viability, T/C [6]: 83.2%
- viability, T/C [7]: 79.1%
- viability, T/C [8]: 82.2%
- viability, T/C [27]: 75.9%
- viability, T/C [28]: 71.2%
- viability, T/C [9]: 84.4%
- viability, T/C [10]: 101%
- viability, T/C [11]: 84.2%
- viability, T/C [12]: 76.7%
- viability, T/C [29]: 79.8%
- viability, T/C [30]: 59.3%
- viability, T/C [13]: 105%
- viability, T/C [14]: 101%
- viability, T/C [15]: 89.4%
- viability, T/C [16]: 85.6%
- viability, T/C [31]: 81.2%
- viability, T/C [32]: 59.2%
- viability, T/C [17]: 88%
- viability, T/C [18]: 93.4%
- viability, T/C [19]: 74.2%
- viability, T/C [20]: 87%
- viability, T/C [33]: 80.3%
- viability, T/C [34]: 66.3%
- viability, T/C [21]: 99.1%
- viability, T/C [22]: 78.2%
- viability, T/C [23]: 80%
- viability, T/C [24]: 70.7%
- viability, T/C [35]: 79.3%
- viability, T/C [36]: 53.1%

SMILES: O=C(c1cc(Cc2n[nH]c(=O)c3ccccc23)ccc1F)N1CCN(C(=O)C2CC2)CC1 + Nc1ccc(C#CCN(C(=O)Cc2ncc(C(F)(F)F)cc2C(F)(F)F)c2ccc(F)cc2)nn1
- pIC50 (second compound 0.0316 µM): < 5.00
- pIC50 (second compound 0.1 µM): < 5.00
- pIC50 (second compound 0.316 µM): < 5.00
- pIC50 (second compound 1 µM): < 5.00
- pIC50 (second compound 3.16 µM): < 5.00
- pIC50 (second compound 10 µM): < 5.00
- viability, T/C [1]: 82.5%
- viability, T/C [2]: 96.2%
- viability, T/C [3]: 84.5%
- viability, T/C [4]: 94.9%
- viability, T/C [25]: 81.9%
- viability, T/C [26]: 80.4%
- viability, T/C [5]: 101%
- viability, T/C [6]: 110%
- viability, T/C [7]: 86.5%
- viability, T/C [8]: 88.2%
- viability, T/C [27]: 80.7%
- viability, T/C [28]: 73.8%
- viability, T/C [9]: 100%
- viability, T/C [10]: 93.8%
- viability, T/C [11]: 89.7%
- viability, T/C [12]: 99%
- viability, T/C [29]: 82.8%
- viability, T/C [30]: 77.8%
- viability, T/C [13]: 97.5%
- viability, T/C [14]: 90.6%
- viability, T/C [15]: 85%
- viability, T/C [16]: 83.2%
- viability, T/C [31]: 82%
- viability, T/C [32]: 69.3%
- viability, T/C [17]: 86.3%
- viability, T/C [18]: 89.9%
- viability, T/C [19]: 91.4%
- viability, T/C [20]: 87.6%
- viability, T/C [33]: 98.3%
- viability, T/C [34]: 81.6%
- viability, T/C [21]: 87.6%
- viability, T/C [22]: 85.8%
- viability, T/C [23]: 80.1%
- viability, T/C [24]: 73.7%
- viability, T/C [35]: 81.5%
- viability, T/C [36]: 66.1%
